Consider 5 compounds from patent US5985603A, “P2x receptor DNA and protein sequence” (Glaxo Group Limited, priority 1994, dated 1999).

As a reminder, the IC50 is the concentration that gives 50% inhibition. As usually defined, the pA2 is the negative logarithm of the molar antagonist concentration that doubles the agonist concentration needed for the same response. By pKB is commonly meant the negative decadic logarithm of the KB, by convention in mol/L.

One assay addresses T1, hP2X (Homo sapiens, UniProt P51575).
T1 construct: expressed in transfected cells; host or cells: Xenopus oocytes injected with in vitro transcribed RNA
T1 sequence (P51575 1-399): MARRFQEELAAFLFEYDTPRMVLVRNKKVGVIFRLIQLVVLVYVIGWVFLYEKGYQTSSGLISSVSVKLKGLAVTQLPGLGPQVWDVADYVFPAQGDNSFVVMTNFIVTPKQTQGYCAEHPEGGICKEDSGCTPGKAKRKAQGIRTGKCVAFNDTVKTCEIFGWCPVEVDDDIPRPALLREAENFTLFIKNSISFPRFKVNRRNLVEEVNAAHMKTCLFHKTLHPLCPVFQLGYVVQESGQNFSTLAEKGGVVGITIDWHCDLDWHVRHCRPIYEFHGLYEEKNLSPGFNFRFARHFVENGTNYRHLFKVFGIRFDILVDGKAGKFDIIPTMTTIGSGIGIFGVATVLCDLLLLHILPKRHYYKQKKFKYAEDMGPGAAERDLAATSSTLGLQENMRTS
Briefly: inward currents evoked by purinoceptor agonists in Xenopus oocytes expressing hP2X. The assay is classed as cell-based. Particulars: for full agonist activity: concentration-response curves; for agonist profile (rank order): oocytes expressing hP2X; for relative potency: relative to ATP, from EEC50. Here is the method: Human urinary bladder P2X cDNA, subcloned into the pBKCMV expression vector, was linearized with Notl, and transcribed in vitro with T3 polymerase in the presence of cap analogue m7G(5')ppp(5')G. Defolliculated Xenopus oocytes (Bertrand et al, Electrophysiology of neuronal nicotinic acetylcholine receptors expressed in Xenopus oocytes following nuclear injection of genes or cDNAs Meth Neurosci 4: 174-193 (1991)) were injected with 50 ng of human P2X in vitro transcribed RNA, and incubated at 18° C. for 2-6 days in the ND96 solution (mM): NaCl96, KCl2, MgCl2 1, CaCl2 2, sodium pyruvate 5, HEPES 5, ph 7.6-7.5, penicillin (10 U/ml), and streptomycin (10 μg/ml).
Oocytes were placed in a 1 ml chamber and superfused at 2-3 ml/min with ND96 solution with 0.1 mM BaCl2 replacing the 2 mM CaCl2 to prevent activation of endogenous calcium-activated chloride currents (Barish, A transient calcium-dependent chloride current in the immature Xenopus oocytes J Physiol 342: 309-325 (1983)). Currents were measured using a two-electrode voltage-clamp amplifier (Geneclamp Axon Instruments)at a holding potential of -60 mV. Microelectrodes were filled with 3 M KCl (0.5-2 M.OMEGA.). Data were collected using PClamp software (Axon Instruments). […] Antagonists were applied both in the superfusate and together with ATP in the U-tube solution.
Concentration response curves for purinoceptor agonists were fitted with a Hill slope of 1. […] Data are presented throughout as mean ± SEM for a given number of oocytes.

A further assay deals with P2X-purinoceptor. Conditions: cited from earlier work.
In another assay the test system is P2X mRNA. Particulars: rat, RP2 mRNA; cited from earlier work.
Assay [1] deals with T2, rat superior cervical ganglion P2X receptor (clone 3) (Rattus norvegicus, UniProt P51577).
T2 construct: The insert appeared to be a full length cDNA; expressed in transfected cells; host or cells: HEK293 cells transfected with pcDNA3 construct p464 (also oocytes injected with in vitro transcribed RNA)
T2 sequence (P51577 1-388): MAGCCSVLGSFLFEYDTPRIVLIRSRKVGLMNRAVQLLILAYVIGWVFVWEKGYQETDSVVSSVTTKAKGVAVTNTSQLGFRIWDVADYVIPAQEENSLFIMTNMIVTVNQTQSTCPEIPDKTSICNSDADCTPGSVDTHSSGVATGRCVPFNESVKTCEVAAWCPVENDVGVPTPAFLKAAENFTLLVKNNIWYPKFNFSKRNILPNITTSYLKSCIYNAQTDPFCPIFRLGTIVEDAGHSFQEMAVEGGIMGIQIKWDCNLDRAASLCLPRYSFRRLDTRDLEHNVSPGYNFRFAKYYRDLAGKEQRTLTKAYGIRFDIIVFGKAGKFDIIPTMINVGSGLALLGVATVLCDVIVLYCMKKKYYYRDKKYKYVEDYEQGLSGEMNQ
Briefly: functional properties of cloned P2X receptors (electrical recordings): clone 3. The assay is classed as cell-based. On the procedure:
(§1) HEK 293 cells were transfected by the lipofectin method (Felgner et al., Proc. Nat'l. Acad. Sci. USA 84 7413-7417 (1987)) with P2X -plasmid. DNA concentration used was 1 mg/2 ml medium placed into a 35 mm petri dish containing four 11 mm diameter coverslips on which HEK cells were placed at 10,000 cells per coverslip. […] Currents were recorded from HEK 293 cells using whole-cell recording methods and the AXOPATCH™ 200 amplifier (Axon Instruments); patch pipettes (5 M.OMEGA.) contained (mM) Cs or K aspartate 140, NaCl 5, EGTA 11, HEPES 5. The external solution was (mM) NaCl 150, KCl2, CaCl2 2, MgCl2 1, HEPES 5 and glucose 11; the pH and osmolarity of both solutions were maintained at 7.3 and 305 mosmol/l respectively. All recordings performed at room temperature. Data acquisition and analysis were performed using pCLAMP™ and AXOGRAPH™ software (Axon Instruments). […] The pH and osmolarity of the solutions were 7.4 and 295 mosmol/l respectively. For single channel measurements, a […]™ 500 amplifier and outside-out recording methods were used (Adelman et al., Neuron 9 209-216 (1992)). Wax-coated patch pipettes (5-10 M.OMEGA.) contained (mM) K-gluconate 115, HEPES 5, BAPTA 5 and MgCl2 0.5, external solution was 96 mM NaCl, 2 mM KCl, 1.8 mM CaCl2, 1 mM MgCl2, 5 mM Hepes pH 7.6, and 5 mM sodium pyruvate.
(§2) The functional characterisation of the clone illustrated in FIG. 2 (referred to herein as clone 3) was carried out by electrical recordings from transfected HEK293 cells and from oocytes injected with the in vitro transcribed RNA, as described in Example 4 for the rat vas deferens P2X receptor. Table A summarizes the main properties of clone 3 as compared to those of rat vas/human bladder cDNA clone, and the PC12 cDNA clone (provided by David Julius and Tony Brake of the University of California at San Francisco).

A further assay addresses T3, PC12 P2X receptor (Rattus norvegicus, UniProt P49653).
T3 construct: host or cells: HEK293 cells (oocytes are also named for the functional characterisation of clone 3)
T3 sequence (P49653 1-472): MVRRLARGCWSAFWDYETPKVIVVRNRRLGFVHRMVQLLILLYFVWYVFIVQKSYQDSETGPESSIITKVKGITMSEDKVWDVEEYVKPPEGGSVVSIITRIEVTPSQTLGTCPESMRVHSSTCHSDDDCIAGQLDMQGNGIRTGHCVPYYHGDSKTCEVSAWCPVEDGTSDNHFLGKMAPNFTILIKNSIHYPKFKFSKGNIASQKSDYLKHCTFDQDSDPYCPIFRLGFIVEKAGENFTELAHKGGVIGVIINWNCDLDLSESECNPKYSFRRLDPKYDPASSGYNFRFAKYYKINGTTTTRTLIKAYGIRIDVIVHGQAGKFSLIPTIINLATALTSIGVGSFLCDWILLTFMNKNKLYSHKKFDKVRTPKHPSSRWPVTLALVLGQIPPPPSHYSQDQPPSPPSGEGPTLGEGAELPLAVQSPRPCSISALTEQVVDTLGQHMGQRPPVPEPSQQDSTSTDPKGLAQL
In words: functional properties of cloned P2X receptors (electrical recordings): PC12. The assay is classed as cell-based. Here is the method:
as §1, §2

In another assay the test system is P2-purinoceptor. Particulars: reported previously for suramin; cited from earlier work.
In a further assay the test system is mouse vas deferens. Particulars: cited from earlier work.
The target of assay [2] is T4, rat vas/human bladder P2X cDNA clone (Homo sapiens, UniProt P51575).
T4 construct: expressed in transfected cells; host or cells: HEK293 cells (oocytes are also named for the functional characterisation)
T4 sequence (P51575 1-399): T1 sequence (P51575 1-399)
In words: functional properties of cloned P2X receptors (electrical recordings): bladder. The assay is classed as cell-based. Particulars: Table A, parameter (EC50) not given; read-out: agonist profile, bladder. Here is the method: DNA concentration used was 1 mg/2 ml medium placed into a 35 mm petri dish containing four 11 mm diameter coverslips on which HEK cells were placed at 10,000 cells per coverslip. […] Currents were recorded from HEK 293 cells using whole-cell recording methods and the AXOPATCH™ 200 amplifier (Axon Instruments); patch pipettes (5 M.OMEGA.) contained (mM) Cs or K aspartate 140, NaCl 5, EGTA 11, HEPES 5. […] All recordings performed at room temperature. Data acquisition and analysis were performed using pCLAMP™ and AXOGRAPH™ software (Axon Instruments). […] ATP was applied by U-tube typically for 1 s; data was sampled at 5 kHz in 2 s segments beginning 300 ms prior to onset of agonist (ATP) application and filtered at 1 kHz.

For assay [3], the target named is T5, rat vas deferens P2X receptor (Rattus norvegicus, UniProt P47824).
T5 construct: cRNA in Xenopus oocytes; stably transfected CHO cells
T5 sequence (P47824 1-399): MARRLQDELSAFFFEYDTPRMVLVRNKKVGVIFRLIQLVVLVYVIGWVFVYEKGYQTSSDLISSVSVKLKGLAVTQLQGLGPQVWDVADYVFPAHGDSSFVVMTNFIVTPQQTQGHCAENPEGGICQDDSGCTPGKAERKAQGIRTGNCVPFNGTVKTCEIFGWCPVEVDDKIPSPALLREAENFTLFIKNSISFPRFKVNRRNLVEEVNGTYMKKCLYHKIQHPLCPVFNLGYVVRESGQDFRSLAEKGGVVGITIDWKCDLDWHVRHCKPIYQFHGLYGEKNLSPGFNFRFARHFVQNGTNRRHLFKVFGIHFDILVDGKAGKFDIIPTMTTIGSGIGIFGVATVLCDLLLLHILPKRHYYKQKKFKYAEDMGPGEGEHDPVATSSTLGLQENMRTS
Briefly: radioligand binding in CHO cells stably transfected with rat vas deferens P2X receptor. The source says:
CHO cells were stably transfected by a method used for other ion channels (Claudio, Meth. Enzymol. 207 391-408 (1992)). Transfection was confirmed by a) electro-physiological recording and b) radioligand binding. […] [^3 H]αβmethyleneATP binding was more than 600 cpm per million transfected cells with less than 80 cpm nonspecific binding.

Where a name gives a salt, the structure may show the parent alone. Some results are limits rather than exact numbers.

Consider `CSc1nc(N)c2ncn([C@@H]3O[C@H](COP(=O)(O)OP(=O)(O)OP(=O)(O)O)[C@@H](O)[C@H]3O)c2n1` [2MeSATP, 2-MethylthioATP tetra sodium salt], for which, at hP2X, the EC50 came out at 0.6 ± 0.1 µM, the full agonist activity entry was “full agonists”, the “agonist profile (rank order)” value was 2MeSATP≥ATP>α,β,-meATP and the relative potency is listed as 1.36. Further, the “comparison of concentration-effect curves” value on hP2X (ATP, 2MeSATP and 2-chloro-ATP) was “superimposable”. Moreover, the “agonist potency order in whole tissue studies” value in the assay with P2X-purinoceptor is listed as “α,β,-meATP >>2MeSATP≥ATP”.
Consider `C[C@@H]1C[C@H]2[C@@H]3CCC4=CC(=O)C=C[C@]4(C)[C@@]3(F)[C@@H](O)C[C@]2(C)[C@@]1(O)C(=O)CO` [dexamethasone], for which the “induction of P2X mRNA in immature thymocytes” value with P2X mRNA was “can be induced in immature thymocytes by dexamethasone”.
On to `Cc1ccc(C(=O)Nc2ccc(S(=O)(=O)O)c3cc(S(=O)(=O)O)cc(S(=O)(=O)O)c23)cc1NC(=O)c1cccc(NC(=O)Nc2cccc(C(=O)Nc3cc(C(=O)Nc4ccc(S(=O)(=O)O)c5cc(S(=O)(=O)O)cc(S(=O)(=O)O)c45)ccc3C)c2)c1` [suramin], for which the “antagonist profile, clone 3 (block)” value in assay [1] (Table A, concentration not given) is reported as below 40%. The “sensitivity of ATP-activated currents to antagonism, compared with rat vas deferens/human bladder and PC12 forms” value in assay [1] (clone 3 (FIG. 15)) is “much less sensitive to antagonism”. This compound registered an IC50 on PC12 P2X receptor of 6 µM. In addition, the pA2 in the assay on P2-purinoceptor is on record as 5.9. Also, in the assay on mouse vas deferens, the pKB is reported as 5.2.
For the compound `Nc1ncnc2c1ncn2[C@@H]1O[C@H](COP(=O)(O)CP(=O)(O)OP(=O)(O)O)[C@@H](O)[C@H]1O` [α,β-meATP, α,β-methylene ATP lithium salt], at hP2X, the EC50 is 3.6 ± 1.6 µM, the full agonist activity result is reported as “full agonists”, the “agonist profile (rank order)” value was 2MeSATP≥ATP>α,β,-meATP and the relative potency came out at 0.23. In assay [2], the EC50 came to 3 µM. In addition, in [1] (Table A, parameter (EC50) not given, read-out: agonist profile, clone 3), the EC50 was above 100 µM. Further, in [1] (clone 3 (FIG. 14)), the agonist action result is “little or no agonist action”. The EC50 at PC12 P2X receptor (Table A, parameter (EC50) not given, read-out: agonist profile, PC12) was above 100 µM. Besides, the “agonist potency order in whole tissue studies” value with P2X-purinoceptor is recorded as “α,β,-meATP >>2MeSATP≥ATP”.
Consider [^3 H]αβmethyleneATP, for which, in [3], the binding entry is reported as “more than 600 cpm per million transfected cells” and the nonspecific binding result is reported as “less than 80 cpm”.
